Reference: a melting point compilation (Tetko et al.)

Row | melting point | Structure (SMILES)
1 | 172 to 174 °C | O=[N+]([O-])c1ccc2[nH]c3c(c2c1)CCCC3
2 | 69 to 71 °C | CC(C)(C)OC(=O)N1CCNc2ccccc2C1
3 | 91 to 93 °C | CC(C)c1ccc(C(=O)CC#N)cc1
4 | 123 to 125 °C | O=C(CCl)NCc1ccccc1S(=O)(=O)N1CCOCC1
5 | 48 to 50 °C | CC1(C)CC(=O)c2cc(Br)cc(Cl)c2O1
6 | 239 to 241 °C | O=C1CNC(=O)c2sccc2N1
7 | 47 to 51 °C | COc1cc(C#N)ccc1OC(F)F
8 | 99 to 101 °C | COC(=O)C(Br)CN1C(=O)c2ccccc2C1=O (stereo not given)
9 | 163 to 165 °C | NNC(=O)Nc1ccc(Br)cc1Cl
10 | 183 to 185 °C | CS(=O)Cc1c(C(=O)O)sc2ccccc12 (stereo not given)
11 | 170 to 172 °C | Cc1ccc(NC(=O)C(=O)O)cc1
12 | 144 to 146 °C | CNC(=O)C1(C(=O)O)CCC1
13 | 105 to 107 °C | CNC(=O)COc1ccc(C=O)cc1OC
14 | 124 to 126 °C | O=C(CC1CCCCC1)NCCC1CNc2ccccc21 (stereo not given)
15 | 80 to 84 °C | N#Cc1cc(C=O)ccc1F
16 | 103 to 105 °C | CCOC(=O)c1oc2ccc(OC)cc2c1C
17 | 169 to 171 °C | C#CCNC(=O)Nc1ccc(C(C)=O)cc1
18 | 105 to 107 °C | Cc1ccc2ncc(C=O)n2c1
19 | 109 to 111 °C | CC(C)CNC(=O)c1ccccc1N
20 | 57 to 59 °C | Cc1ccc(Br)c(S(=O)(=O)Cl)c1
21 | 140 to 142 °C | CCOc1cc(C#N)cc(Br)c1O

Row | melting point | Structure (SMILES)
22 | 89 to 91 °C | CCc1oc2ccccc2c1C(=O)O
23 | 204 to 206 °C | Nc1cccc(C(=O)NCc2ccccc2F)c1
24 | 68 to 70 °C | O=C(Nc1ccccc1C(F)(F)F)OCC(F)(F)F
25 | 203 to 205 °C | O=C(O)CCc1n[nH]c(=O)[nH]c1=O
26 | 131 to 133 °C | COc1ccc(Cl)cc1CC(=O)O
27 | 254 to 256 °C | O=C(O)c1ccc(NS(=O)(=O)c2ccc(Br)s2)cc1
28 | 149 to 151 °C | COC(=O)CCCc1nnc(N)s1
29 | 78 to 80 °C | COc1cccc(C(=O)NCC(=O)O)c1
30 | 222 to 224 °C | Nc1cc(Br)ccc1C(=O)O
31 | 195 to 197 °C | Nc1cc(Cl)c(NC(=O)c2cnccn2)c(Cl)c1
32 | 169 to 171 °C | O=C(O)CNC(=O)c1ccc(F)cc1
33 | 153 to 155 °C | COC(=O)c1sc2c(c1N)CCC(C(C)(C)C)C2 (stereo not given)
34 | 80 to 82 °C | CC(=O)Cn1cnc(C)c1C
35 | 180 to 182 °C | Cc1ccc2oc(C(=O)O)c(C)c2c1
36 | 167 to 169 °C | Cc1c(Cl)cc(C(=O)O)cc1S(=O)(=O)Cl
37 | 169 to 171 °C | Cn1nc[nH]c1=O
38 | 121 to 123 °C | CS(=O)(=O)c1ccc(Cl)c([N+](=O)[O-])c1
39 | 140 to 142 °C | COc1ccc(C2(C(=O)O)CCCC2)cc1OC
40 | 195 to 197 °C | N#Cc1ccc(C(=O)NN)cc1
41 | 124 to 126 °C | COC(=O)c1cc(C=O)c[nH]1
42 | 94 to 96 °C | Cc1cnn(CCC(=O)O)c1

Row | melting point | Structure (SMILES)
43 | 114 to 116 °C | CN(C)C(=O)CNc1ccccc1
44 | 177 to 179 °C | COc1cc(NS(=O)(=O)c2ccc(N)cc2OC)cc(OC)c1
45 | 124 to 126 °C | CNS(=O)(=O)c1ccc2c(c1)CCN2
46 | 54 to 56 °C | CCOc1ccc(C(C)=O)cc1[N+](=O)[O-]
47 | 83 to 85 °C | COC(=O)c1cccc(S(=O)(=O)N2CCCCC2)c1
48 | 107 to 109 °C | Cc1ccc(F)c(-c2nc(C(=O)O)no2)c1
49 | 137 to 139 °C | COc1ccc(C(=O)NN)cc1Br
50 | 192 to 194 °C | CC(C)NC(=O)Nc1ccc(O)c(C(=O)O)c1
51 | 151 to 153 °C | CCc1ccc(S(C)(=O)=O)cc1C(=O)O
52 | 99 to 101 °C | Cn1cc(C=O)c(-c2ccc3c(c2)OCCCO3)n1
53 | 169 to 171 °C | Cc1cc(N)ccc1S(N)(=O)=O
54 | 286 to 288 °C | O=C(O)c1sc2cc(Br)ccc2c1Cl
55 | 224 to 226 °C | Cc1cc(C(=O)O)c2c(CC(C)(C)C)noc2n1
56 | 217 to 219 °C | O=C(O)c1cccc(C(=O)N2CCS(=O)(=O)CC2)n1
57 | 69 to 71 °C | CCOC(=O)c1nnc(-c2ccccc2)o1
58 | 259 to 261 °C | O=C(O)Cc1csc2nccn12
59 | 165 to 167 °C | O=C(Nc1cccc(O)c1)c1ccsc1
60 | 214 to 216 °C | O=C(O)Cc1csc(NC(=O)c2ccc(Br)o2)n1
61 | 172 to 174 °C | Cc1nn(C)c(C)c1OCC(=O)O
62 | 275 to 277 °C | NS(=O)(=O)Cc1ccc(C(=O)O)cc1
63 | 170 to 172 °C | CC1Cc2ccccc2N1S(=O)(=O)c1cccc(C(=O)O)c1 (stereo not given)

Row | melting point | Structure (SMILES)
64 | 60 to 64 °C | CC(O)c1cc(Cl)ccc1Cl (stereo not given)
65 | 163 to 165 °C | Cc1ccc(C(=O)NC2CCNCC2)s1
66 | 59 to 61 °C | O=C(O)c1ccccc1N1CCCCC1
67 | 73 to 75 °C | COC(=O)c1cc(Br)cc(N)c1Cl
68 | 65 to 67 °C | CNc1cccc([N+](=O)[O-])c1
69 | 104 to 106 °C | CCOc1ccc(OCCCC(=O)O)cc1
70 | 71 to 75 °C | COc1ccccc1C(=O)CC#N
71 | 237 to 239 °C | O=C(O)c1ccc(-c2ccc(F)cc2)cc1F
72 | 190 to 192 °C | Cc1cc(C(=O)O)nn1-c1cccc(Cl)c1
73 | 226 to 228 °C | O=C(O)c1ccc(NS(=O)(=O)C(F)(F)F)cc1
74 | 149 to 151 °C | O=C(O)c1ccc(-c2cccc(OC(F)(F)F)c2)s1
75 | 67 to 69 °C | CC(C)C(Oc1ccc(F)cc1F)C(=O)O (stereo not given)
76 | 254 to 256 °C | Cc1c(C(=O)O)c(O)nc2ccccc12
77 | 171 to 173 °C | CC(O)c1ccc2c(c1)CC(=O)N2 (stereo not given)
78 | 85 to 87 °C | COC(=O)COc1ccc(C(C)=O)cc1
79 | 54 to 56 °C | COc1cc(F)c(F)cc1[N+](=O)[O-]
80 | 148 to 150 °C | O=C(O)CNC(=O)c1cccc(Br)c1
81 | 77 to 79 °C | COC(=O)CCCCCNC(=O)c1ccsc1
82 | 274 to 276 °C | O=C(O)c1ccc(NC(=O)C2CC2)cc1

Continued, compound first:

Row | Structure (SMILES) | melting point
83 | CN1CCN(S(=O)(=O)c2ccc3c(c2)CCN3)CC1 | 176 to 178 °C
84 | C1CCc2nnc(C3CCCNC3)n2CC1 (stereo not given) | 171 to 173 °C
85 | O=[N+]([O-])c1cc(S(=O)(=O)N2CCCCC2)ccc1Cl | 61 to 63 °C
86 | NNc1cc(C(F)(F)F)nc(-c2ccncc2)n1 | 233 to 235 °C
87 | Cn1c(-c2ccccc2)cnc1S | 180 to 182 °C
88 | CC(C)(C)c1nc2cc(N)ccc2o1 | 111 to 113 °C
89 | Fc1ccc(Oc2ccncc2)c(Br)c1 | 74 to 76 °C
90 | CC(Cl)C(=O)N(C)C1CCS(=O)(=O)C1 (stereo not given) | 106 to 108 °C
91 | CC(C)c1ccc(SC(C(=O)O)c2ccccc2)cc1 (stereo not given) | 99 to 101 °C
92 | Fc1ccccc1-c1nnc(CCl)o1 | 86 to 88 °C
93 | Cc1cccc(C#N)n1 | 70 to 72 °C
94 | Sc1nc(-c2cccs2)c(-c2cccs2)[nH]1 | 293 to 295 °C
95 | Cc1sc(N)nc1-c1ccc(Cl)cc1 | 146 to 148 °C
96 | CCOC(=O)/C(C#N)=C(\N)C(Cl)(Cl)Cl | 94 to 96 °C
97 | O=C(c1cc2ccccc2cc1O)N1CCOCC1 | 216 to 218 °C
98 | O=C(O)COC1CCOCC1 | 65 to 67 °C
99 | Nc1ncncc1CO | 165 to 167 °C
100 | Cc1nnc2c(Cl)cccn12 | 163 to 165 °C
101 | Clc1ccc(Br)cc1CBr | 71 to 73 °C
102 | O=C(O)CCc1c(-c2ccccc2)[nH]c2ccc(F)cc12 | 161 to 163 °C
103 | CC(Oc1ccc(-c2ccccc2)cc1)C(=O)O (stereo not given) | 159 to 161 °C

Row | Structure (SMILES) | melting point
104 | O=C(O)C=Cc1ccc(S(=O)(=O)N2CCc3ccccc32)cc1 | 199 to 201 °C
105 | CC(CC(N)=NO)N(C)C(=O)OC(C)(C)C (stereo not given) | 102 to 104 °C
106 | O=C1NCCNC1c1ccc(C(F)(F)F)cc1 (stereo not given) | 141 to 143 °C
107 | O=C(O)CSCC(=O)N1CCOCC1 | 119 to 121 °C
108 | ClCc1csc(-c2ccccn2)n1 | 85 to 87 °C
109 | O=Cc1cn(-c2ccccc2)nc1-c1ccc(Cl)cc1 | 125 to 127 °C
110 | Cc1ccc(C(=O)Cc2ccccn2)cc1 | 73 to 75 °C
111 | N#Cc1ccccc1OCc1cccc(C(=O)O)c1 | 153 to 155 °C
112 | Fc1ccccc1-c1nnc(S)n1Cc1ccccc1 | 90 to 92 °C
113 | NC(Cc1ccccc1)CN1CCOCC1 (stereo not given) | 54 to 56 °C
114 | O=C(NO)C12CC3CC(CC(C3)C1)C2 | 110 to 112 °C
115 | N=C1NCCO1 | 69 to 71 °C
116 | Cn1ccnc1SCc1ccccc1[N+](=O)[O-] | 86 to 88 °C
117 | Nc1ccccc1NS(=O)(=O)c1ccc(F)cc1 | 122 to 124 °C
118 | CCc1nc2ccccc2n1CC#N | 104 to 106 °C
119 | COCCn1c(C)cc(C=O)c1C | 44 to 46 °C
120 | CCc1cccc(CC)c1-n1ccnc1 | 74 to 76 °C
121 | NCCCN1CCN(c2ncccn2)CC1 | 72 to 74 °C
122 | O=C1NC(=O)C2(CCNCC2)N1 | 240 to 250 °C
123 | CC(C)CNC(=O)CC#N | 57 to 59 °C
124 | CN(C)C(=O)CO | 32 to 34 °C

Row | Structure (SMILES) | melting point
125 | O=C(O)CCCS(=O)(=O)N1CCCC1 | 130 to 132 °C
126 | CCCCn1nnnc1CCl | < 17 °C
127 | Nc1cc(-c2cc(F)cc(F)c2)[nH]n1 | 110 to 112 °C
128 | N#Cc1ccc(OC(F)F)c(N)c1 | 86 to 88 °C
129 | CCc1ccccc1Nc1nnc(S)s1 | 159 to 161 °C
130 | O=C(O)c1c2c(cc([N+](=O)[O-])c1[N+](=O)[O-])OCCO2 | 210 to 212 °C
131 | Sc1nc(/C=C/c2ccccc2)n[nH]1 | 277 to 279 °C
132 | O=C(OCc1ccccc1)N1CCCC(CS(=O)(=O)Cl)C1 (stereo not given) | 81 to 83 °C
133 | O=C(O)COc1ccc(C2SCCS2)cc1 | 137 to 139 °C
134 | O=C1NC(=O)C2(CCC2)N1 | 222 to 224 °C
135 | Nc1cccc(-c2nc3ccccc3s2)c1 | 138 to 140 °C
136 | Nc1nc(-c2cccnc2)no1 | 266 to 268 °C
137 | NCC1(Nc2ccccc2)CCCCC1 | 61 to 63 °C
138 | O=C1C=CC(=O)N1c1cccc2cnccc12 | 134 to 136 °C
139 | CC(C)(C)Nc1nccs1 | 83 to 85 °C
140 | Cn1ccnc1-c1noc(N)n1 | 197 to 199 °C
141 | Nc1ccc(Cl)cc1-n1cccc1 | 92 to 94 °C
142 | Sc1nnc(-c2ccccc2Br)o1 | 200 to 202 °C
143 | CCCCn1c(=O)[nH]c(=O)c2c1nc(CO)n2CCC | 134 to 136 °C
144 | Nc1cncc(Br)c1Cl | 96 to 98 °C
145 | Nc1nc(-c2ccc(Cl)s2)ns1 | 151 to 153 °C
